Experiments:
[1] = biological target: T1, RNA-dependent DNA polymerase activity of HIV reverse transcriptase (Human immunodeficiency virus type 1 group M subtype B, UniProt P03366); test: RNA-dependent DNA polymerase activity assay of HIV reverse transcriptase; assay type: biochemical, HIV-1; conditions: 10 μM inhibitor concentration; activity in presence / in absence of analog x 100
T1 construct: made in house
Method: In separate representative assays, mappicine analogs were tested for their ability to inhibit the RNA-dependent DNA polymerase activity of HIV reverse transcriptase and for their ability to inhibit the RNase H activity of HIV reverse transcriptase. The assay for RNA-dependent DNA polymerase activity is discussed in Borkow, G. et al., “Inhibition of the Ribonuclease H and DNA Polymerase Activities of HIV-1 Reverse Transcriptase by N-(4-tert-Butylbenzoyl)-2-hydroxy-1-naphthaldehyde Hydrazone,” Biochemistry 1997, 36, 3179-3185, a copy of which is attached hereto and the disclosure of which is incorporated herein by reference. Assays were carried out in the absence and in the presence of mappicine analogs (10 μM final concentration). The results are reported as % residual activity, which is the RNA-dependent DNA polymerase activity of the enzyme in the presence of the mappicine analog divided by the RNA-dependent activity of the enzyme in the absence of the mappicine analog, multiplied by 100.

[2] = biological target: T2, RNase H activity of HIV reverse transcriptase (Human immunodeficiency virus type 1 group M subtype B, UniProt P03366); test: Fluorescence (FRET)-based RNase H assay of HIV reverse transcriptase; assay type: biochemical, HIV-1; conditions: 10 μM inhibitor concentration; activity in presence / in absence of analog x 100
T2 construct: 2.5 nM of the p51/p66 RT heterodimer in the assay; made in house
Method: Recently, a fluorescence-based assay to perform screens in search of HIV RNase H inhibitors has been developed. The assay, which is carried out in 96-well microplates and is adaptable to robotics, is the first high-throughput screen for RNase H and is described in further detail in the Experimental section. HIV-1 RT and human RNase H were cloned, and thus comparative analysis of inhibitor action could be conducted simultaneously.
The assay for RNase H activity of HIV reverse transcriptase was the fluorescence-based assay described in detail in the Experimental section and discussed in U.S. Provisional Patent Application Serial No. 60/318,359. Assays were carried out in the absence and in the presence of mappicine analogs (10 μM or 20 μM final concentration). The results are reported as % residual activity, which is the RNase H activity of the enzyme in the presence of the mappicine analog divided by the RNase H activity of the enzyme in the absence of the mappicine analog, multiplied by 100. Alternatively, the results are reported as % inhibition, which is calculated as the ratio of the RNase H activity of the enzyme in the presence of the mappicine analog to the enzyme activity in the absence of the mappicine analog, multiplied by 100, and then subtracting this number from 100.
Assay for Ribonuclease H Activity Based on Fluorescence Resonance Energy Transfer (FRET)
Preparation of the Fluorophore-RNA/Quencher-DNA Hybrid Duplex Substrate.
The RNA/DNA hybrid duplex substrate for use in the assay comprises an RNA oligonucleotide of sequence 5′-GAU CUG AGC CUG GGA GCU-3′, modified at the 3′-end with Aminolink-2 and derivatized with fluorescein isothiocyanate, to provide a modified RNA oligonucleotide of the sequence 5′-GAU CUG AGC CUG GGA GCU-fluorescein-3′, annealed to a complementary DNA oligonucleotide of the sequence 5′-AGC TCC CAG GCT CAG ATC-3′ modified at the 5′-end with Aminolink-2 and derivatized with the FRET acceptor DABCYL succinimidyl ester, to provide a modified DNA oligonucleotide of the sequence 5′-DABCYL-AGC TCC CAG GCT CAG ATC-3′.
To prepare the 3′-fluorescein-RNA/5′-DABCYL-DNA hybrid duplex substrate, a known amount of 3′-fluorescein-RNA was dissolved in 20 mM Tris buffer (pH 8.0, 37° C.) to provide a final concentration of 5 μM. Two equivalents of the 5′-DABCYL-DNA oligonucleotide were added, and the mixture was heated to 90° C. for 5 min and cooled slowly to room temperature to allow duplex formation. The positioning of the fluorescein donor at the 3′-end of the RNA oligonucleotide and the DABCYL acceptor at the 5′-end of the DNA oligonucleotide provides a very close proximity of the donor and acceptor that results in a very intense quenching of the fluorescein emission in the intact RNA/DNA hybrid duplex substrate due to the spectral overlap of the fluorescence emission of fluorescein with the absorption spectrum of DABCYL. In addition, DABCYL is non-fluorescent, and thus cannot contribute any light emission. Both of these factors result in a very low background and provide a high signal-to-noise in the assay measurements. The ratio of the donor fluorescence in the absence and in the presence of its quencher is approximately fifteen-fold.
Microplate Assay Protocol for the Measurement of RNase H Activity Using the RNA/IDNA Hybrid Duplex Substrate.
Reaction assay mixtures contained 5 μl of a stock solution of 2.5 μM RNA/DNA hybrid duplex substrate added to 85 μl of assay buffer (50 mM Tris, pH 8.0, 37° C., containing 60 mM KCl and 2.5 mM MgCl2), prepared in the wells of a 96-well fluorescence microtiter plate, and warmed to 37° C. using the temperature control of the SpectraMax Gemini XS microplate spectrofluorometer (Molecular Devices). Reactions were started by the addition of 5 μl of a solution of recombinant HIV-1 reverse transcriptase (usually providing a final concentration of 2.5 nM of the p51/p66 RT heterodimer in the assay), and mixing using the automatic mixing function of the microplate spectrofluorometer. […]

Row | SMILES | Residual activity (%) Polymerase [1] [%] | Residual activity (%) RNase H [2] [%]
1 | Cc1c(C(=O)CCC2CCCCC2)cc2n(c1=O)Cc1c-2nc2ccccc2c1[Si](C)(C)C(C)(C)C [5 (4Aδκ)] | 39 | 102
2 | Cc1c(C(O)Cc2ccccc2)cc2n(c1=O)Cc1c-2nc2ccccc2c1[Si](C)(C)C(C)(C)C (stereo not shown) [5 (4Aε)] | 83 | 93
3 | CCC(O)c1cc2n(c(=O)c1C)Cc1c-2nc2ccc(F)cc2c1[Si](C)(C)C(C)(C)C (stereo not shown) [5 (4Bα)] | 98 | 108
4 | CCC(=O)c1cc2n(c(=O)c1C)Cc1c-2nc2ccc(F)cc2c1[Si](C)(C)C(C)(C)C [5 (4Bακ)] | 42 | 77
5 | Cc1c(C(O)C(C)(C)C)cc2n(c1=O)Cc1c-2nc2ccc(F)cc2c1[Si](C)(C)C(C)(C)C (stereo not shown) [5 (4Bβ)] | 49 | 113
6 | Cc1c(C(=O)C(C)(C)C)cc2n(c1=O)Cc1c-2nc2ccc(F)cc2c1[Si](C)(C)C(C)(C)C [5 (4Bβκ)] | 82 | 79
7 | Cc1c(C(O)CCC2CCCCC2)cc2n(c1=O)Cc1c-2nc2ccc(F)cc2c1[Si](C)(C)C(C)(C)C (stereo not shown) [5 (4Bδ)] | 44 | 90
8 | Cc1c(C(=O)CCC2CCCCC2)cc2n(c1=O)Cc1c-2nc2ccc(F)cc2c1[Si](C)(C)C(C)(C)C [5 (4Bδκ)] | 56 | 96
9 | Cc1c(C(O)Cc2ccccc2)cc2n(c1=O)Cc1c-2nc2ccc(F)cc2c1[Si](C)(C)C(C)(C)C (stereo not shown) [5 (4Bε)] | 61 | 89
10 | CCC(O)c1cc2n(c(=O)c1C)Cc1c-2nc2ccc(C)cc2c1[Si](C)(C)C(C)(C)C (stereo not shown) [5 (4Cα)] | 94 | 91
11 | CCC(=O)c1cc2n(c(=O)c1C)Cc1c-2nc2ccc(C)cc2c1[Si](C)(C)C(C)(C)C [5 (4Cακ)] | 52 | 90
12 | Cc1ccc2nc3c(c([Si](C)(C)C(C)(C)C)c2c1)Cn1c-3cc(C(O)C(C)(C)C)c(C)c1=O (stereo not shown) [5 (4Cβ)] | 67 | 94
13 | Cc1ccc2nc3c(c([Si](C)(C)C(C)(C)C)c2c1)Cn1c-3cc(C(=O)C(C)(C)C)c(C)c1=O [5 (4Cβκ)] | 67 | 65
14 | Cc1ccc2nc3c(c([Si](C)(C)C(C)(C)C)c2c1)Cn1c-3cc(C(O)CCC2CCCCC2)c(C)c1=O (stereo not shown) [5 (4Cδ)] | 61 | 109
15 | Cc1ccc2nc3c(c([Si](C)(C)C(C)(C)C)c2c1)Cn1c-3cc(C(=O)CCC2CCCCC2)c(C)c1=O [5 (4Cδκ)] | 52 | 96
16 | CCC(O)c1cc2n(c(=O)c1C)Cc1c-2nc2ccc(OC)cc2c1[Si](C)(C)C(C)(C)C (stereo not shown) [5 (4Dα)] | 77 | 79
17 | CCC(=O)c1cc2n(c(=O)c1C)Cc1c-2nc2ccc(OC)cc2c1[Si](C)(C)C(C)(C)C [5 (4Dακ)] | 80 | 77
